# Laboratory results: US8067424B2, “Selective inhibitors for cyclin-dependent kinases” (Emory University, priority 2007, dated 2011)
# Read-outs that look alike come from different tables or passages of the source.
# What was measured:
# [1] = tested on: RNA polymerase II phosphorylation (P-Ser-2, P-Ser-5); assay: Inhibition of phosphorylation of RNA polymerase II (immunoblot, MCF-7 cells); assay type: cell-based; conditions: MCF-7 cells treated 4 hours
# Description: MCF-7 breast cancer cells were treated with BS-181 or Roscovitine at the concentrations shown in FIG. 2 for 4 hours prior to harvesting of cells. […] Immunblotting for β-actin was used as loading control for protein content.
# SK-MEL-28 = assay: cells; conditions: Homo sapiens
# IGROV1 = assay: cells; conditions: Homo sapiens
# EKVX = assay: cells; conditions: Homo sapiens
# [2] = HOP-62, log10 concentration −4.0
# [3] = HOP-62, log10 concentration −5.0
# [4] = HOP-62, log10 concentration −6.0
# [5] = HOP-62, log10 concentration −7.0
# [6] = HOP-62, log10 concentration −8.0
# [7] = TK-10, log10 concentration −4.0
# [8] = TK-10, log10 concentration −5.0
# [9] = TK-10, log10 concentration −6.0
# [10] = TK-10, log10 concentration −7.0
# [11] = TK-10, log10 concentration −8.0
structure (smiles),measurement,setting,value
CC(C)c1cnn2c(NCc3ccccc3)cc(NCCCCCCCN)nc12 [BS-181],Inhibition of phosphorylation of RNA polymerase II,[1],capable of inhibiting phosphorylation of RNAPolymerase II
"CC(C)c1cnn2c(NCc3ccccc3)cc(N[C@@H](CO)[C@H](O)CO)nc12 [ICEC0318, (3S)-3-(7-(Benzylamino)-3-isopropylpyrazolo[1,5-a]pyrimidin-5-ylamino)butane-1,2,4-triol]",TGI,HOP-62; HOP-62 (Non-Small Cell Lung Cancer),7.68E−7
same,Mean Optical Densities,HOP-62; [2],0.336
same,Percent Growth,HOP-62; [2],−28%
same,Mean Optical Densities,HOP-62; [3],0.393
same,Percent Growth,HOP-62; [3],−15%
same,Mean Optical Densities,HOP-62; [4],0.412
same,Percent Growth,HOP-62; [4],−12%
same,Mean Optical Densities,HOP-62; [5],1.165
same,Percent Growth,HOP-62; [5],89%
same,Mean Optical Densities,HOP-62; [6],1.312
same,Percent Growth,HOP-62; [6],107%
same,GI50,SK-MEL-28; SK-MEL-28,245 nM
same,CC50,"SK-MEL-28; SK-MEL-28, read-out: LC50",37100 nM
same,GI50,IGROV1; IGROV-1,210 nM
same,CC50,"IGROV1; IGROV-1, read-out: LC50",> 100000 nM
same,GI50,EKVX,286 nM
same,CC50,EKVX; read-out: LC50,> 100000 nM
same,TGI,TK-10; TK-10 (Renal Cancer),>1.00E−4
same,Mean Optical Densities,TK-10; [7],0.610
same,Percent Growth,TK-10; [7],18%
same,Mean Optical Densities,TK-10; [8],0.593
same,Percent Growth,TK-10; [8],15%
same,Mean Optical Densities,TK-10; [9],0.572
same,Percent Growth,TK-10; [9],12%
same,Mean Optical Densities,TK-10; [10],1.192
same,Percent Growth,TK-10; [10],101%
same,Mean Optical Densities,TK-10; [11],1.202
same,Percent Growth,TK-10; [11],103%
